# Assay results reported in patent US8859466B2, “Oxaspirocyclic spiro-substituted tetramic acid and tetronic acid derivatives” (Bayer CropScience AG, priority 2007, dated 2014).
# Test: Determination of the logP values by HPLC on a reverse-phase column (C 18)
# Assay type: physicochemical
# Procedure: Determination of the logP Values
# The logP values given in the table were determined in accordance with EEC Directive 79/831 Annex V.A8 by HPLC (high performance liquid chromatography) on a reverse-phase column (C 18). Temperature: 55° C.
# Mobile phases for the determination in the acidic range (pH 3.4):
# Mobile phase A: acetonitrile+1 ml of formic acid/liter. Mobile phase B: water+0.9 ml of formic acid/liter.
# Gradient: from 10% mobile phase A/90% mobile phase B to 95% mobile phase A/5% mobile phase B over 4.25 min.
# Calibration was carried out using unbranched alkan-2-ones (having 3 to 16 carbon atoms) with known logP values (determination of the logP values by the retention times using linear interpolation between two successive alkanones). The lambda max values were determined in the maxima of the chromatographic signals using the UV spectra from 200 nm to 400 nm.
# [1] = HPLC on a reverse-phase column (C 18), separated α/β isomers
log P* [1],Compound,also measured
2.73,"Cc1ccc(C)c(C2=C(O)C3(CCC4(CCCO4)CC3)OC2=O)c1 (single isomer, unassigned) [Example I-2-a-2]",
2.29,"Cc1ccc(C)c(C2=C(O)C3(CCC4(CCCO4)CC3)OC2=O)c1 (single isomer, unassigned) [Example I-2-a-3]",
2.52,"Cc1cc(C)c(C2=C(O)C3(CCC4(CCCO4)CC3)OC2=O)c(C)c1 (single isomer, unassigned) [Example I-2-a-4]",
3.00,"Cc1cc(C)c(C2=C(O)C3(CCC4(CCCO4)CC3)OC2=O)c(C)c1 (single isomer, unassigned) [Example I-2-a-5]",
3.44,"CCc1cc(Br)cc(C)c1C1=C(O)C2(CCC3(CCCO3)CC2)OC1=O (single isomer, unassigned) [Example I-2-a-6]",
2.94,"CCc1cc(Br)cc(C)c1C1=C(O)C2(CCC3(CCCO3)CC2)OC1=O (single isomer, unassigned) [Example I-2-a-7]",
3.09,"CCc1cc(Cl)cc(CC)c1C1=C(O)C2(CCC3(CCCO3)CC2)OC1=O (single isomer, unassigned) [Example I-2-a-8]",
3.62,"CCc1cc(Cl)cc(CC)c1C1=C(O)C2(CCC3(CCCO3)CC2)OC1=O (single isomer, unassigned) [Example I-2-a-9]",
2.28,"COc1cc(C)cc(C)c1C1=C(O)C2(CCC3(CCCO3)CC2)OC1=O (single isomer, unassigned) [Example I-2-a-10]",
2.66,"COc1cc(C)cc(C)c1C1=C(O)C2(CCC3(CCCO3)CC2)OC1=O (single isomer, unassigned) [Example I-2-a-11]",
2.73,"CCc1cc(C)cc(C)c1C1=C(O)C2(CCC3(CCCO3)CC2)OC1=O (single isomer, unassigned) [Example I-2-a-14]",
3.21,"CCc1cc(C)cc(C)c1C1=C(O)C2(CCC3(CCCO3)CC2)OC1=O (single isomer, unassigned) [Example I-2-a-15]",
2.99,"CCc1cc(C)cc(CC)c1C1=C(O)C2(CCC3(CCCO3)CC2)OC1=O (single isomer, unassigned) [Example I-2-a-16]",
3.47,"CCc1cc(C)cc(CC)c1C1=C(O)C2(CCC3(CCCO3)CC2)OC1=O (single isomer, unassigned) [Example I-2-a-17]",
2.73,"CCc1cc(C)cc(Br)c1C1=C(O)C2(CCC3(CCCO3)CC2)OC1=O (single isomer, unassigned) [Example I-2-a-28]",
3.22,"CCc1cc(Br)cc(C)c1C1=C(O)C2(CCC3(CCCO3)CC2)OC1=O (single isomer, unassigned) [Example I-2-a-29]",

log P* [1],Compound,also measured
3.28,"Cc1cc(C2=C(O)C3(CCC4(CCCO4)CC3)OC2=O)c(C)cc1Br (single isomer, unassigned) [Example I-2-a-30]",
2.77,"Cc1cc(C2=C(O)C3(CCC4(CCCO4)CC3)OC2=O)c(C)cc1Br (single isomer, unassigned) [Example I-2-a-31]",
2.48,"Cc1cc(C)c(C2=C(O)C3(CCC4(CCCO4)CC3)OC2=O)c(Br)c1 (single isomer, unassigned) [Example I-2-a-32]",
2.95,"Cc1cc(C)c(C2=C(O)C3(CCC4(CCCO4)CC3)OC2=O)c(Br)c1 (single isomer, unassigned) [Example I-2-a-33]",
2.05,"COc1cccc(C)c1C1=C(O)C2(CCC3(CCCO3)CC2)OC1=O (single isomer, unassigned) [Example I-2-a-34]",
2.42,"COc1cccc(C)c1C1=C(O)C2(CCC3(CCCO3)CC2)OC1=O (single isomer, unassigned) [Example I-2-a-35]",
2.77,"CCc1cc(Br)cc(Cl)c1C1=C(O)C2(CCC3(CCCO3)CC2)OC1=O (single isomer, unassigned) [Example I-2-a-36]",
3.40,"CCc1cc(Br)cc(Cl)c1C1=C(O)C2(CCC3(CCCO3)CC2)OC1=O (single isomer, unassigned) [Example I-2-a-37]",
2.79,"CCc1cc(Cl)c(C2=C(O)C3(CCC4(CCCO4)CC3)OC2=O)c(Br)c1 (single isomer, unassigned) [Example I-2-a-38]",
3.26,"CCc1cc(Cl)c(C2=C(O)C3(CCC4(CCCO4)CC3)OC2=O)c(Br)c1 (single isomer, unassigned) [Example I-2-a-39]",
2.60,"Cc1cc(C2=C(O)C3(CCC4(CCCO4)CC3)OC2=O)c(Cl)cc1Cl (single isomer, unassigned) [Example I-2-a-40]",
3.14,"Cc1cc(C2=C(O)C3(CCC4(CCCO4)CC3)OC2=O)c(Cl)cc1Cl (single isomer, unassigned) [Example I-2-a-41]",
2.82,"CCc1cc(Cl)cc(C)c1C1=C(O)C2(CCC3(CCCO3)CC2)OC1=O (single isomer, unassigned) [Example I-2-a-44]",
3.34,"CCc1cc(Cl)cc(C)c1C1=C(O)C2(CCC3(CCCO3)CC2)OC1=O (single isomer, unassigned) [Example I-2-a-45]",
2.99,"Cc1cc(C)c(C2=C(O)C3(CCC4(CCCO4)CC3)OC2=O)cc1C (single isomer, unassigned) [Example I-2-a-48]",
2.54,"Cc1cc(C)c(C2=C(O)C3(CCC4(CCCO4)CC3)OC2=O)cc1C (single isomer, unassigned) [Example I-2-a-49]",

# The next lines start with the compound.
Compound,log P* [1],also measured
"Cc1cc(C)c(-c2ccc(Cl)cc2)c(C)c1C1=C(O)C2(CCC3(CCCO3)CC2)OC1=O (single isomer, unassigned) [Example I-2-a-42]",3.79,
"Cc1cc(C)c(-c2ccc(Cl)cc2)c(C)c1C1=C(O)C2(CCC3(CCCO3)CC2)OC1=O (single isomer, unassigned) [Example I-2-a-43]",4.32,
Cc1ccc(-c2ccc(Cl)cc2)cc1C1=C(OC(=O)C(C)C)C2(CCC3(CCCO3)CC2)OC1=O (stereo not drawn) [1-2-b-11],,log P* (compounds of formula (I-2-b)): 5.86
Cc1ccc(-c2ccc(Cl)c(Cl)c2)cc1C1=C(O)C2(CCC3(CCCO3)CC2)OC1=O (stereo not drawn) [Example I-2-a-12],3.74,
Cc1ccc(-c2ccc(Cl)c(Cl)c2)cc1C1=C(O)C2(CCC3(CCCO3)CC2)OC1=O (stereo not drawn) [Example I-2-a-13],4.24,
Cc1ccc(-c2ccc(Cl)cc2)c(C)c1C1=C(O)C2(CCC3(CCCO3)CC2)OC1=O (stereo not drawn) [Example I-2-a-18],3.52,
Cc1ccc(-c2ccc(Cl)cc2)c(C)c1C1=C(O)C2(CCC3(CCCO3)CC2)OC1=O (stereo not drawn) [Example I-2-a-19],4.06,
O=C1OC2(CCC3(CCCO3)CC2)C(O)=C1c1cc(-c2ccc(Cl)cc2)ccc1Cl (stereo not drawn) [Example I-2-a-20],3.25,
O=C1OC2(CCC3(CCCO3)CC2)C(O)=C1c1cc(-c2ccc(Cl)cc2)ccc1Cl (stereo not drawn) [Example I-2-a-21],3.79,
Cc1ccc(-c2ccc(F)cc2)cc1C1=C(O)C2(CCC3(CCCO3)CC2)OC1=O (stereo not drawn) [Example I-2-a-22],3.0,
Cc1ccc(-c2ccc(F)cc2)cc1C1=C(O)C2(CCC3(CCCO3)CC2)OC1=O (stereo not drawn) [Example I-2-a-23],3.5,
Cc1ccc(-c2ccc(Cl)cc2)cc1C1=C(O)C2(CCC3(CCCO3)CC2)OC1=O (stereo not drawn) [Example I-2-a-24],3.32,
Cc1ccc(-c2ccc(Cl)cc2)cc1C1=C(O)C2(CCC3(CCCO3)CC2)OC1=O (stereo not drawn) [Example I-2-a-25],3.87,
Cc1cc(C)c(-c2ccc(Cl)cc2)cc1C1=C(O)C2(CCC3(CCCO3)CC2)OC1=O (stereo not drawn) [Example I-2-a-26],4.15,
Cc1cc(C)c(-c2ccc(Cl)cc2)cc1C1=C(O)C2(CCC3(CCCO3)CC2)OC1=O (stereo not drawn) [Example I-2-a-27],3.60,
Cc1ccc(-c2ccc(F)cc2)c(C)c1C1=C(O)C2(CCC3(CCCO3)CC2)OC1=O (stereo not drawn) [Example I-2-a-46],3.69,
Cc1ccc(-c2ccc(F)cc2)c(C)c1C1=C(O)C2(CCC3(CCCO3)CC2)OC1=O (stereo not drawn) [Example I-2-a-47],3.20,
O=C1OC2(CCC3(CCCO3)CC2)C(O)=C1c1cc(-c2ccc(F)cc2)ccc1Cl (stereo not drawn) [Example I-2-a-50],2.91,
O=C1OC2(CCC3(CCCO3)CC2)C(O)=C1c1cc(-c2ccc(F)cc2)ccc1Cl (stereo not drawn) [Example I-2-a-51],3.42,
COc1cc(C)cc(C)c1C1=C(OC(=O)C(C)C)[C@]2(CC[C@@]3(CCCO3)CC2)OC1=O [Example I-2-b-1],,"chromatographic logP (reverse-phase HPLC column (C 18), HPLC, reverse-phase C 18, acidic range (pH 3.4), 55° C., read-out: log P): 4.12"
COc1cc(C)cc(C)c1C1=C(OC(=O)C(C)C)C2(CCC3(CCCO3)CC2)OC1=O (stereo not drawn) [Example I-2-b-2],,log P* (compounds of formula (I-2-b)): 4.60
Cc1cc(C)c(-c2ccc(Cl)cc2)cc1C1=C(OC(=O)C(C)C)C2(CCC3(CCCO3)CC2)OC1=O (stereo not drawn) [Example I-2-b-3],,log P* (compounds of formula (I-2-b)): 5.64
Cc1cc(C)c(-c2ccc(Cl)cc2)cc1C1=C(OC(=O)C(C)C)C2(CCC3(CCCO3)CC2)OC1=O (stereo not drawn) [Example I-2-b-4],,log P* (compounds of formula (I-2-b)): 6.24
Cc1ccc(C)c(C2=C(OC(=O)C(C)C)C3(CCC4(CCCO4)CC3)OC2=O)c1 (stereo not drawn) [Example I-2-b-5],,log P* (compounds of formula (I-2-b)): 4.22
Cc1ccc(C)c(C2=C(OC(=O)C(C)C)C3(CCC4(CCCO4)CC3)OC2=O)c1 (stereo not drawn) [Example I-2-b-6],,log P* (compounds of formula (I-2-b)): 4.78
Cc1cc(C)c(C2=C(OC(=O)C(C)C)C3(CCC4(CCCO4)CC3)OC2=O)c(C)c1 (stereo not drawn) [Example I-2-b-7],,log P* (compounds of formula (I-2-b)): 4.52
Cc1cc(C)c(C2=C(OC(=O)C(C)C)C3(CCC4(CCCO4)CC3)OC2=O)c(C)c1 (stereo not drawn) [Example I-2-b-8],,log P* (compounds of formula (I-2-b)): 5.12
Cc1ccc(-c2ccc(F)cc2)cc1C1=C(OC(=O)C(C)C)C2(CCC3(CCCO3)CC2)OC1=O (stereo not drawn) [Example I-2-b-9],,log P* (compounds of formula (I-2-b)): 4.83
